In patent publication US20250228835A1, “PYRIDINYLOXYPYRIDINES AND RELATED COMPOUNDS AND THEIR USE IN TREATING MEDICAL CONDITIONS” (Rectify Pharmaceuticals, Inc., priority 2024, published 2025):

Experiments:
ABCA4 P1380L = target: T1, ABCA4 P1380L (Homo sapiens, UniProt P78363, P1380L); test: A4 correction dose-response assay: ABCA4 P1380L HiBit protein expression; assay type: cell-based; settings: HEK-293 cells stably expressing HiBit-tagged ABCA4 P1380L; 24 h treatment; top concentration 30 μM; read-out: ABCA4 P1380L EC50, Emax
T1 construct: expressed in transfected cells
Description: Exemplary compounds were evaluated in an A4 correction dose-response assay.
To assess activity against ABCA4 P1380L, the compounds were screened in an assay measuring protein expression, using cells transfected with cDNA encoding HiBit-tagged ABCA4 P1380L. Here we describe an assay for measuring the expression of the P1380L variant of human ABCA4 (henceforth referred to as ABCA4 P1380L) and the use of this assay to measure the efficacy of compounds to increase the expression of ABCA4 P1380L. The assay was designed to characterize the efficacy and potency of compounds to increase the expression of ABCA4 P1380L by calculating an Emax and EC50 value. […] (5% CO2, humidified). […] After the four-hour incubation period, 60 nL of DMSO solutions are transferred to the assay plate.
(§1) Dose response curves include eleven doses with the top final concentration at 30 μM in 0.3% DMSO. Liquid handling is performed with ECHO 550 Acoustic Liquid Handler (Labcyte). After addition of compound treatment, cells are incubated for 24 hours at 37° C. (5% CO2, humidified). After the 24-hour treatment, plates are allowed to equilibrate to room temperature for 10 minutes. Using Dragonfly Automated Liquid Handler (TTP LabTech), 20 μl of HiBit lytic assay reagent (Promega, product #N3040), which is prepared according to manufacturer's instructions, is added to each well. The plates are rotated at room temperature for 2 minutes and incubated for 1 hour at 25° C. before luminescent signal is acquired using an EnVision Multimode Plate Reader (PerkinElmer).

ABCB4 WT = target: T2, ABCB4 WT (Homo sapiens, UniProt P21439); test: ABCB4 WT assay: HiBit protein expression; assay type: cell-based; settings: HEK-293 cells stably expressing HiBit-tagged ABCB4 WT; 24 h treatment; top concentration 30 μM; read-out: ABCB4 WT EC50, Emax
T2 construct: expressed in transfected cells
Text: To assess activity against ABCB4, compounds were screened in an assay measuring protein expression, using cells transfected with cDNA encoding HiBit-tagged ABCB4 wild-type.
Described here is an assay for measuring the expression of the wild type of human ABCB4 (henceforth referred to as ABCB4 WT) and the use of this assay to measure the efficacy of compounds to increase the expression of ABCB4 WT. The assay was designed to characterize the efficacy and potency of compounds to increase the expression of ABCB4 WT by calculating an Emax and EC50 value. HEK-293 cells stably expressing ABCB4 WT (HEK-293/ABCB4 WT) were used for this assay and were maintained at 37° C. (5% CO2, humidified) in Dulbecco's Modified Eagle Medium (DMEM, Gibco product #12100) supplemented with 10% fetal bovine serum (Biosera product #FB-1058/500), 1% PenStrep (HDB product #15140-122), and 0.5 mg/mL puromycin (Gibco product #A11138-03). For the assay, the HEK-293/ABCB4 WT cells were seeded in white/opaque 384-well plates (Corning product #3570) at 10,000 cells/well in 20 μl growth medium and allowed to settle for 4 hours at 37° C. (5% CO2, humidified). Compound serial dilutions are prepared in DMSO as three hundred times (333×) the final concentration and using a dilution factor of 3 using Bravo (Agilent). After the four-hour incubation period, 60 nL of DMSO solutions are transferred to the assay plate.
as §1
Results are presented below in Table 5 for ABCB4 WT.

T2 sequence (P21439 whole entry): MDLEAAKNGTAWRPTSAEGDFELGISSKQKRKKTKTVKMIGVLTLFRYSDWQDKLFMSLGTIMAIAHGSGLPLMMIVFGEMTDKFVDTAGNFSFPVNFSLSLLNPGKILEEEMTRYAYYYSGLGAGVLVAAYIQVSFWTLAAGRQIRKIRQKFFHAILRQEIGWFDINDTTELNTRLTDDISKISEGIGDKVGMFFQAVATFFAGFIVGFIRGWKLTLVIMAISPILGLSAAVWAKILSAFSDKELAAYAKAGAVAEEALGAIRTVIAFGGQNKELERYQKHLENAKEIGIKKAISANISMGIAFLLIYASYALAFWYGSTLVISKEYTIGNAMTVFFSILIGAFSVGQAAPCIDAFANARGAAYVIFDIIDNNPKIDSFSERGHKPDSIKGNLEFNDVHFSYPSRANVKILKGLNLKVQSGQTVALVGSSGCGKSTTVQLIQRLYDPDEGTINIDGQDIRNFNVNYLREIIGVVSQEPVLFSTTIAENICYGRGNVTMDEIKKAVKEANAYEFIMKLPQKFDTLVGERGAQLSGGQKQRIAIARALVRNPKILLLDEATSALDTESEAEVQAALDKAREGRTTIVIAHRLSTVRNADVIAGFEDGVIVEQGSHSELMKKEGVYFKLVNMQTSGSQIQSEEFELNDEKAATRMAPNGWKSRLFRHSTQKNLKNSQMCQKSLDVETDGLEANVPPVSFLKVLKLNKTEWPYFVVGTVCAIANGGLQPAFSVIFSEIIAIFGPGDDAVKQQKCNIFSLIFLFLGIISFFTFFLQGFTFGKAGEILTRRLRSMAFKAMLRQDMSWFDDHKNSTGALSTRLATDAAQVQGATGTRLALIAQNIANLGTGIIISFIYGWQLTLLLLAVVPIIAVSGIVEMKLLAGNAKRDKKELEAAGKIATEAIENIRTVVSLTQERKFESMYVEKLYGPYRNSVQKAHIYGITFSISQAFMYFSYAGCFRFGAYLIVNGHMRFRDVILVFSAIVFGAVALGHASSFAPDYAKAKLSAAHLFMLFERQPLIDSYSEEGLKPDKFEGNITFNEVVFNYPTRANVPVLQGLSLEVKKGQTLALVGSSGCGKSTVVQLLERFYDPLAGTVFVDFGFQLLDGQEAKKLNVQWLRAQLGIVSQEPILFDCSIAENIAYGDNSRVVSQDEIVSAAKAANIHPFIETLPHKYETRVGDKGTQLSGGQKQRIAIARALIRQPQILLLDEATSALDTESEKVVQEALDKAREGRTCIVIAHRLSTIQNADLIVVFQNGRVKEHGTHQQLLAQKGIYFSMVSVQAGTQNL
T1 sequence (P78363 whole entry P1380L): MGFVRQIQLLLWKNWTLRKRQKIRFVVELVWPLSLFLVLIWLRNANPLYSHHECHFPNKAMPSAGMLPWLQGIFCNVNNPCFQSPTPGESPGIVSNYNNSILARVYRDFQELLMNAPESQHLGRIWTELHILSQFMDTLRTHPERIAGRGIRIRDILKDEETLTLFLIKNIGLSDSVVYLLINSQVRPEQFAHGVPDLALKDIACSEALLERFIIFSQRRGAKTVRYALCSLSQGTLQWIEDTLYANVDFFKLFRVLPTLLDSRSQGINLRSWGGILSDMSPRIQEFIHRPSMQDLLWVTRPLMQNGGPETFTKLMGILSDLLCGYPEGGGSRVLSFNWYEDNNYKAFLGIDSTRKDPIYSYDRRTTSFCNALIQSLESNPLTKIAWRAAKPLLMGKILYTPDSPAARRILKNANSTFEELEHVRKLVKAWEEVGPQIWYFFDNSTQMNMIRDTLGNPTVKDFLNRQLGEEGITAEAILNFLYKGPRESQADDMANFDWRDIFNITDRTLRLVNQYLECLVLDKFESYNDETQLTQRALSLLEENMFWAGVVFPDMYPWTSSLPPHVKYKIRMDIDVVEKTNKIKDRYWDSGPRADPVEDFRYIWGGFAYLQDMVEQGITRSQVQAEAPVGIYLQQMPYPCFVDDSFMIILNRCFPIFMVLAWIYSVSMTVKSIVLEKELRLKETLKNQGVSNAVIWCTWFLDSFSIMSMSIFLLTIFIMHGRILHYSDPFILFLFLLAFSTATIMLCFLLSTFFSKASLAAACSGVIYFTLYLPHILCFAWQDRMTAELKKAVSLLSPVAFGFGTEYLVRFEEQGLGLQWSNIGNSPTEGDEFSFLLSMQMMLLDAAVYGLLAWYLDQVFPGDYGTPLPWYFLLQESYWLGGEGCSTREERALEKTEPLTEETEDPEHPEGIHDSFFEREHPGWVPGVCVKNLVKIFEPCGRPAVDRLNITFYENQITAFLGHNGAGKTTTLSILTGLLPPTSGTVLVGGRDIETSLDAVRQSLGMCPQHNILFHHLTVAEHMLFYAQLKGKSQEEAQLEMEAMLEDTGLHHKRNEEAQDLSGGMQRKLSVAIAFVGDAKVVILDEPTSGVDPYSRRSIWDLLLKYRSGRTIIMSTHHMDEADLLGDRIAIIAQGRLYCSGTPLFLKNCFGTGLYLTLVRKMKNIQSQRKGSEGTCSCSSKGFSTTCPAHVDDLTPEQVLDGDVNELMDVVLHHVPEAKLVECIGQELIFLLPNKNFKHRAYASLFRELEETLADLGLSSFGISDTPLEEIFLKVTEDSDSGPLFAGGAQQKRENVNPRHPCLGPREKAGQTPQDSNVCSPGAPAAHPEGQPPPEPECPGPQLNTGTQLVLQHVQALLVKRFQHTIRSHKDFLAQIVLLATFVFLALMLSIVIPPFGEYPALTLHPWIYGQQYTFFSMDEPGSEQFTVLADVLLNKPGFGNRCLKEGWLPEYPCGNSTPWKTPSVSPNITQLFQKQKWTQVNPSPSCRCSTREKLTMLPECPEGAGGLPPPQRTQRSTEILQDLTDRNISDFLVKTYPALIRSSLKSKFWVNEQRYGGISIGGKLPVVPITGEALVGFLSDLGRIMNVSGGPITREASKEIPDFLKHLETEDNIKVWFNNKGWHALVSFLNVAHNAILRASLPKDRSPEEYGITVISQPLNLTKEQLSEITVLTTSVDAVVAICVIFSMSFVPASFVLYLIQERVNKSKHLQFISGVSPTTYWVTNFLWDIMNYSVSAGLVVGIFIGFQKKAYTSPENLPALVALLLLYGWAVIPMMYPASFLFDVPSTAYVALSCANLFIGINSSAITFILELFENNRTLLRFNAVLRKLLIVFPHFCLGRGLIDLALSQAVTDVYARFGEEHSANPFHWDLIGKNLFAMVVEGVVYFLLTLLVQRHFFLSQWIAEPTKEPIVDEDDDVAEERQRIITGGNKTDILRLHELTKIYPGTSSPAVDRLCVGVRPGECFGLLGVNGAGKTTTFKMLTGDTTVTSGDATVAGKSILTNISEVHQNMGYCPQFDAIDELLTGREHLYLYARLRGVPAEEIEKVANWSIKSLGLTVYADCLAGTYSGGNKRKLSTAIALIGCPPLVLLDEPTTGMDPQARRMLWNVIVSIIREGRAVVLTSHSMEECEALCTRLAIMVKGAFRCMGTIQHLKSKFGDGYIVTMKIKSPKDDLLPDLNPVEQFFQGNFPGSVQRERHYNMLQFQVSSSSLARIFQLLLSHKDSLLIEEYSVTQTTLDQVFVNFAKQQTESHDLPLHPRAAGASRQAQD

Row | EC50 (ABCA4 P1380L) | EC50 (ABCB4 WT) | SMILES
1 | < 25 µM | < 1 µM | Cc1cc(C(F)(F)F)nc(C2CC2)c1Oc1nc(-c2cncc(C#N)c2)ccc1NS(C)(=O)=O [Compound I-163]
2 | 1 to 10 µM | 1 to 10 µM | Cc1nc(C)c(Oc2nc(-c3cncc(Cl)c3)ccc2NS(C)(=O)=O)c(C2CC2)n1 [Compound I-164]
3 | > 25 µM | ≥ 25 µM | Cc1cc(C(F)(F)F)nc(C2CC2)c1Oc1nc(-c2cncc(C#N)c2)ccc1N=S(C)(C)=O [Compound I-286]
4 | > 25 µM | < 25 µM | Cc1cc(C(F)(F)F)nc(C2CC2)c1Oc1nc(-c2cncc(C#N)c2)ccc1S(=N)(=O)C1CC1 (stereo not drawn) [Compound I-287]
5 | 1 to 10 µM | 1 to 10 µM | Cc1cc(C(F)F)nc(C2CC2)c1Oc1nc(-c2cncc(C#N)c2)ccc1S(=O)(=O)NC1CC1 [Compound I-288]
6 | > 25 µM | 10 to 25 µM | CNS(=O)(=O)c1ccc(-c2cncc(C#N)c2)nc1Oc1c(C)cc(C(F)F)nc1C1CC1 [Compound I-289]
7 | > 25 µM | ≥ 25 µM | Cc1cc(C(F)(F)F)nc(C2CC2)c1Oc1nc(-c2cncc(C#N)c2)ccc1S(=O)(=O)N1CCOCC1 [Compound I-290]
8 | < 25 µM | < 1 µM | Cc1cc(C(F)(F)F)nc(C2CC2)c1Oc1nc(-c2cncc(C#N)c2)ccc1S(=O)(=O)N(C)C [Compound I-291]
9 | 1 to 10 µM | 1 to 10 µM | Cc1nc(C(F)(F)F)nc(C2CC2)c1Oc1nc(-c2cncc(C#N)c2)ccc1S(=O)(=O)NC1CC1 [Compound I-292]
10 | < 25 µM | < 1 µM | CNS(=O)(=O)c1ccc(-c2cncc(C#N)c2)nc1Oc1c(C)cc(C(F)(F)F)nc1C1CC1 [Compound I-293]
11 | < 25 µM | 10 to 25 µM | Cc1cc(C(F)(F)F)nc(C2CC2)c1Oc1nc(-c2cncc(C#N)c2)ccc1S(=O)(=O)Nc1cccnc1 [Compound I-294]
12 | < 25 µM | ≥ 25 µM | Cc1cc(C(F)(F)F)nc(C2CC2)c1Oc1nc(-c2cccc(C#N)c2)ccc1S(=N)(=O)C1CC1 (stereo not drawn) [Compound I-295]
13 | < 1 µM | < 1 µM | Cc1cc(C(F)(F)F)nc(C2CC2)c1Oc1nc(-c2cncc(C#N)c2)ccc1S(=N)(=O)c1cccnn1 (stereo not drawn) [Compound I-296]
14 | 1 to 10 µM | 1 to 10 µM | Cc1cc(C(F)(F)F)nc(C2CC2)c1Oc1nc(-c2cncc(C#N)c2)ccc1S(=N)(=O)c1cnccn1 (stereo not drawn) [Compound I-297]
15 | > 25 µM | ≥ 25 µM | CNS(=O)(=O)c1ccc(-c2cncc(C#N)c2)nc1Oc1c(C)cc(C2CC2)nc1C1CC1 [Compound I-298]
16 | < 1 µM | < 1 µM | Cc1sc(C2CC2)nc1Oc1nc(-c2cncc(C#N)c2)ccc1NS(C)(=O)=O [Compound I-299]
17 | < 25 µM | < 1 µM | Cc1nc(Oc2nc(-c3cncc(C#N)c3)ccc2NS(C)(=O)=O)c(C2CC2)s1 [Compound I-300]

Row | EC50 (ABCA4 P1380L) | EC50 (ABCB4 WT) | SMILES
18 | < 25 µM | ≥ 25 µM | Cc1cc(C(F)(F)F)nc(C2CC2)c1Oc1nc(-c2cncc(C#N)c2)ccc1S(=N)(=O)C1CCOCC1 (stereo not drawn) [Compound I-301]
19 | > 25 µM | 10 to 25 µM | Cc1cc(C(F)(F)F)nc(C2CC2)c1Oc1nc(-c2cncc(C#N)c2)ccc1S(=N)(=O)c1ccccn1 (stereo not drawn) [Compound I-302]
20 | > 25 µM | ≥ 25 µM | Cc1nc(C(F)(F)F)nc(C2CC2)c1Oc1nc(-c2cncc(C#N)c2)ccc1S(=N)(=O)C1CC1 (stereo not drawn) [Compound I-303]
21 | 1 to 10 µM | 1 to 10 µM | Cc1cc(C(F)(F)F)nc(C2CC2)c1Oc1nc(-c2cncc(C#N)c2)ccc1S(=N)(=O)c1cccnc1 (stereo not drawn) [Compound I-304]
22 | > 25 µM | ≥ 25 µM | Cc1cc(C(F)(F)F)nc(C2CC2)c1Oc1nc(-c2cncc(C#N)c2)ccc1S(=O)(=O)NC1COC1 [Compound I-305]
23 | < 25 µM | ≥ 25 µM | Cc1cc(C(F)(F)F)nc(C2CC2)c1Oc1nc(-c2cncc(C#N)c2)ccc1S(=O)(=O)NC1CCOCC1 [Compound I-306]
24 | > 25 µM | ≥ 25 µM | Cc1cc(C)c(Oc2nc(-c3c[nH]c(=O)c(C#N)c3)ccc2NS(C)(=O)=O)c(C)n1 [Compound I-307]
25 | > 25 µM | < 25 µM | CNS(=O)(=O)c1ccc(-c2cncc(C#N)c2)nc1Oc1nc(C2CC2)sc1C [Compound I-308]
26 | > 25 µM | < 1 µM | Cc1nc(C(F)(F)F)nc(C2CC2)c1Oc1nc(-c2cncc(C#N)c2)ccc1S(=O)(=O)Nc1cnn(C)c1 [Compound I-309]
27 | > 25 µM | ≥ 25 µM | Cc1nc(C(F)(F)F)nc(C2CC2)c1Oc1nc(-c2cncc(C#N)c2)ccc1S(=O)(=O)Nc1cccnc1 [Compound I-310]
28 | 1 to 10 µM | 1 to 10 µM | Cc1cc(C)[n+]([O-])c(C)c1Oc1nc(-c2cncc(C#N)c2)ccc1NS(C)(=O)=O [Compound I-311]
29 | > 25 µM | ≥ 25 µM | CNS(=O)(=O)c1ccc(-c2cncc(C#N)c2)nc1Oc1nc(C)sc1C1CC1 [Compound I-312]
30 | 10 to 25 µM | 1 to 10 µM | CNS(=O)(=O)c1ccc(-c2cncc(C#N)c2)nc1Oc1c(C)nc(C(F)F)nc1C1CC1 [Compound I-313]
31 | > 25 µM | 1 to 10 µM | Cc1nc(C(F)F)nc(C2CC2)c1Oc1nc(-c2cncc(C#N)c2)ccc1S(=O)(=O)NC1CC1 [Compound I-314]
32 | > 25 µM | ≥ 25 µM | CNS(=O)(=O)c1ccc(-c2cncc(C#N)c2)nc1Oc1c(C)nc(C(F)(F)F)nc1C1CC1 [Compound I-315]
33 | 1 to 10 µM | 1 to 10 µM | Cc1cc(C)c(Oc2nc(-c3cccc(C#N)c3)ccc2S(=N)(=O)C2CC2)c(C)n1 (stereo not drawn) [Compound I-316]
